Measurements taken from patent US9359371B2, “Bicyclic substituted pyrimidine compounds” (Xuanzhu Pharma Co., Ltd., priority 2012, dated 2016).
Like-named read-outs stand apart in the source and are kept apart here. Values belong to the molecule of their own block, whether it stands above or below them.

Legend:
PDE-5A enzyme = PDE-5A enzyme (Homo sapiens (Human), UniProt O76074); experiment: Caliper Mobility-Shift PDE-5A Assay; format: biochemical; conditions: Table 1; Avanafil value is the control
Protocol: Experiment 1: Measurement of Enzymatic Activity In Vitro
PDE-5A enzyme: humanized PDE-5 enzyme, SignalChem, Cat#93-31G-20.
Method: enzyme assay, Caliper Mobility-Shift PDE-5A Assay:
The test compound was accurately weighed, dissolved in DMSO, mixed thoroughly and formulated into 10 mM.
(§1) The maximum final concentration of the compound was 10 μM. The plate was incubated at 30° C. for 1 h, and 20 μL of 70 μM EDTA was then added to stop the reaction. 26 μL of solution of each well was transferred to a 384-well plate. The conversion was read on a EZ reader II. The inhibition rate was calculated by the formula below, and used to calculate IC50 by Prism 5.0 Inhibition rate=[Conversion (ZPE)−Conversion (sample)]×100/[Conversion (ZPE)−Conversion (HPE)]
Note: HPE: control without enzyme; ZPE: control without a test compound

[1] = target: PDE-5 enzyme (human blood platelets) (Homo sapiens (Human), UniProt O76074); experiment: PDE-5 enzyme assay, [3H]cGMP; format: biochemical; conditions: Table 2; human blood platelet enzyme; read-out: IC50 on PDE-5
PDE-11 = PDE-11 (Homo sapiens (Human), UniProt Q9HCR9); experiment: Caliper Mobility-Shift PDE-11 Assay; format: biochemical; conditions: Table 4; maximum final concentration 10 μM
Sequence of PDE-11 (Q9HCR9 whole entry): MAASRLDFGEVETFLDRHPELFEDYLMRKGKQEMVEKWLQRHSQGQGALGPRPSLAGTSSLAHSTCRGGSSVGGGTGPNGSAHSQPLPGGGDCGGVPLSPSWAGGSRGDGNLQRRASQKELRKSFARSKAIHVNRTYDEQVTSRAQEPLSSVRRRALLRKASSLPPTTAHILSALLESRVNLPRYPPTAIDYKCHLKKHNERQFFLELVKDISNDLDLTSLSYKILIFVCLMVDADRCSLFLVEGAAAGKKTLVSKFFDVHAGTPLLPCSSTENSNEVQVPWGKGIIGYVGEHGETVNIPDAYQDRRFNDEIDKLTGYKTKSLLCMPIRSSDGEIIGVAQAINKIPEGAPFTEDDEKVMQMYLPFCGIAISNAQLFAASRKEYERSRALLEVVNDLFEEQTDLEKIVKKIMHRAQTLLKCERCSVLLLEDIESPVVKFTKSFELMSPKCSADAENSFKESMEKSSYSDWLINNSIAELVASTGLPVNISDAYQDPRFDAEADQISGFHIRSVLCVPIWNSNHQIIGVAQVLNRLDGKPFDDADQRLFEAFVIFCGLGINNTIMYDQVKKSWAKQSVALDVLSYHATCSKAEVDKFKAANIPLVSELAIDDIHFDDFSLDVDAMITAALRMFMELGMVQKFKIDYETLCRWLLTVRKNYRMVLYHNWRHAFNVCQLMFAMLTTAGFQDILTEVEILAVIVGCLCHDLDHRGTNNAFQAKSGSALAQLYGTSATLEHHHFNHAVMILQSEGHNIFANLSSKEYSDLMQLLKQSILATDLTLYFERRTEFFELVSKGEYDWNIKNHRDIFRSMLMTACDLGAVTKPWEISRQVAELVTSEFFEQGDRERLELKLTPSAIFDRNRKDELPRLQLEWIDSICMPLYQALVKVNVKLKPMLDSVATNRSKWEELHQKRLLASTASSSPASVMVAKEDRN
Protocol: Experiment 4: Measurement of Pharmacological Activity on PDE-11 Enzyme In Vitro
Method: enzyme assay, Caliper Mobility-Shift PDE-11 Assay
The test compound was accurately weighed, dissolved in DMSO, mixed thoroughly and formulated into 10 mM. The above stock solution was diluted to a concentration of 0.5 mM with DMSO, and then was gradiently diluted by a dilution factor of 3.162, resulting in 11 concentrations in total.
as §1, with “To a 96-well plate, 20 μL of 10 μM FL-cGMP as the substrate was added; then 1 μL solution of the compound in DMSO or DMSO solution without compound was added; and then 29 μL of 0.28 ng/μL PDE-11 enzyme buffer (100 mM Hepes pH 7.5, 5 mM MgCl2, 0.002% Brij-35) was added. The maximum” for “The maximum”, “II. The Inhibition rate was” for “II. The inhibition rate was”
Note: HPE: control without enzyme; ZPE: control without compound

[2] = Pharmacokinetics (PK) in SD rats; format: in vivo; conditions: rat; for AUC(0-inf) / Cmax / half-life / bioavailability / Tmax: SD, plasma; for bioavailability: read-out: F % (absolute bioavailability)
Protocol: Experiment 9: Assay of Pharmacokinetics (PK) of the Compounds of the Present Invention in SD Rats
Compound 1-54 of the present invention were prepared by the methods described in Example 1 to Example 54 of the present invention.
The control drug Avanafil, of which the structure was stated above, was purchased commercially.
Collection of the rat's blood: The animal was fixed. The tail was warmed with a water bath 10 min before the collection time. About 200 μL of whole blood was collected from the tail vein. The collected blood was collected into anticoagulant tubes containing heparin sodium. The blood samples were centrifuged at 4° C. by 8000 rpm for 6 min to give the plasma samples, which should be prepared within 30 min after the collection of blood. The plasma samples were stored in a freezer of −80° C. until test.
The result output by Analyst 1.5.1 of AB Company was used as the concentration of the tested sample (plasma sample). The mean value, standard deviation, variable coefficient and the like were calculated by Microsoft Excel (except for the result directly output by Analyst 1.5.1). Parameters of PK were calculated by Pharsight Phoenix 6.2 software. Formula for calculating oral bioavailability: F %=AUCinf−po*Doseiv/AUCinf−iv*Dosepo.

[3] = po, intragastric administration, 1 mg/kg
[4] = po, intragastric administration, 2 mg/kg

Compound: COc1ccc(CNc2nc(N3CC4CC4C3)ncc2C(=O)NCc2ncccn2)cc1Cl (stereo not drawn) [Compound 1, 2-(3-azabicyclo[3.1.0]hexan-3-yl)-4-((3-chloro-4-methoxybenzyl)amino)-N-(pyrimidin-2-ylmethyl)pyrimidine-5-formamide]
- IC50 (PDE-5A enzyme): 6.04 nM
- IC50 [1]: 6.04 nM
- IC50 (PDE-11): > 10000 nM

Compound: COc1ccc(CNc2nc(N3CC4CC4C3)ncc2C(=O)NCc2cnc(C)cn2)cc1Cl (stereo not drawn) [Compound 4, 2-(3-azabicyclo[3.1.0]hexan-3-yl)-4-((3-chloro-4-methoxybenzyl)amino)-N-((5-methylpyrazine-2-yl)methyl)pyrimidine-5-formamide]
- IC50 (PDE-5A enzyme): 4.63 nM
- IC50 (PDE-11): > 10000 nM

Compound: COc1ccc(CNc2nc(N3CC4CC4C3)ncc2C(=O)NCc2ccc(F)cc2)cc1Cl (stereo not drawn) [Compound 5, 2-(3-azabicyclo[3.1.0]hexan-3-yl)-4-((3-chloro-4-methoxybenzyl)amino)-N-(4-fluorobenzyl)pyrimidine-5-formamide]
- IC50 (PDE-5A enzyme): 17.4 nM
- IC50 (PDE-11): > 10000 nM

Compound: COc1ccc(CNc2nc(N3CC4CC4C3)ncc2C(=O)NCCN2CCOCC2)cc1Cl (stereo not drawn) [Compound 6, 2-(3-azabicyclo[3.1.0]hexan-3-yl)-4-((3-chloro-4-methoxybenzyl)amino)-N-(2-morpholinylethyl)pyrimidine-5-formamide]
- IC50 (PDE-5A enzyme): 4.25 nM
- IC50 (PDE-11): > 10000 nM

Compound: COc1ccc(CNc2nc(N3CC4CC4C3)ncc2C(=O)NCC2CCNCC2)cc1Cl (stereo not drawn) [Compound 7, 2-(3-azabicyclo[3.1.0]hexan-3-yl)-4-((3-chloro-4-methoxybenzyl)amino)-N-(piperdin-4-ylmethyl)pyrimidine-5-formamide]
- IC50 (PDE-11): > 10000 nM

Compound: COc1ccc(CNc2nc(N3CC4CC4C3)ncc2C(=O)N[C@H]2CCCCNC2=O)cc1Cl (stereo partly drawn) [Compound 8, 2-(3-azabicyclo[3.1.0]hexan-3-yl)-4-((3-chloro-4-methoxybenzyl)amino)-N-((s)-caprolactam-3-yl)pyrimidine-5-formamide]
- IC50 (PDE-5A enzyme): 13.2 nM
- IC50 (PDE-11): > 10000 nM

Compound: COc1ccc(CNc2nc(N3CCC4(CCC4)CC3)ncc2C(=O)NCc2ncccn2)cc1Cl [Compound 14, 4-((3-chloro-4-methoxybenzyl)amino)-N-(pyrimidin-2-ylmethyl)-2-(7-azaspiro[3.5]nonan-7-yl)pyrimidine-5-formamide]
- IC50 (PDE-11): > 10000 nM
- AUC(0-inf) [2, 3]: 36 ng·h/mL
- Cmax [2, 3]: 5.2 ng/mL
- half-life [2, 3]: 2.85 h
- bioavailability [2, 3]: 15%
- AUC(0-inf) ([2]; intravenous injection, 1 mg/kg): 237 ng·h/mL
- half-life ([2]; intravenous injection, 1 mg/kg): 1.47 h
- Cl_obs ([2]; intravenous injection, 1 mg/kg): 71 mL/min/kg
- Vss_obs ([2]; intravenous injection, 1 mg/kg): 8.73 L/kg

Compound: COc1ccc(CNc2nc(N3CCC4(CC4)C3)ncc2C(=O)NCc2ccccn2)cc1Cl [Compound 40, 4-((3-chloro-4-methoxybenzyl)amino)-N-(pyridin-2-ylmethyl)-2-(5-azaspiro[2.4]heptan-5-yl)pyrimidine-5-formamide]
- IC50 (PDE-5A enzyme): 11.9 nM
- AUC(0-inf) [2, 4]: 57 ng·h/mL
- Cmax [2, 4]: 13.9 ng/mL
- Tmax [2, 4]: 0.5 h
- half-life [2, 4]: 3.58 h
- bioavailability [2, 4]: 9.5%
- AUC(0-inf) ([2]; intravenous injection, 1 mg/kg): 205 ng·h/mL
- half-life ([2]; intravenous injection, 1 mg/kg): 2.73 h
- Cl_obs ([2]; intravenous injection, 1 mg/kg): 81.3 mL/min/kg
- Vss_obs ([2]; intravenous injection, 1 mg/kg): 16.40 L/kg

Compound: COc1ccc(CNc2nc(N3CCC4(CC4)C3)ncc2C(=O)NCc2ncccn2)cc1Cl [Compound 41, 4-((3-chloro-4-methoxybenzyl)amino)-N-(pyrimidin-2-ylmethyl)-2-(5-azaspiro[2.4]heptan-5-yl)pyrimidine-5-formamide]
- IC50 (PDE-5A enzyme): 22.9 nM
- AUC(0-inf) [2, 4]: 67 ng·h/mL
- Cmax [2, 4]: 43.8 ng/mL
- Tmax [2, 4]: 0.5 h
- half-life [2, 4]: 0.91 h
- bioavailability [2, 4]: 17.7%
- AUC(0-inf) ([2]; intravenous injection, 1 mg/kg): 188 ng·h/mL
- half-life ([2]; intravenous injection, 1 mg/kg): 0.83 h
- Cl_obs ([2]; intravenous injection, 1 mg/kg): 89.2 mL/min/kg
- Vss_obs ([2]; intravenous injection, 1 mg/kg): 6.62 L/kg

The remaining lines, values ahead:

- IC50 (PDE-5A enzyme): 23.2 nM
- IC50 (PDE-11): > 10000 nM
Compound: COc1ccc(CNc2nc(N3CC4CC4C3)ncc2C(=O)NC2CCCCCC2)cc1Cl (stereo not drawn) [Compound 9, 2-(3-azabicyclo[3.1.0]hexan-3-yl)-4-((3-chloro-4-methoxybenzyl)amino)-N-cycloheptanylpyrimidine-5-formamide]

- IC50 (PDE-11): > 10000 nM
Compound: COc1ccc(CNc2nc(N3CCC4(CCN(C)C4)C3)ncc2C(=O)NCc2ncccn2)cc1Cl (stereo not drawn) [Compound 18, 4-((3-chloro-4-methoxybenzyl)amino)-2-(7-methyl-2,7-diazaspiro[4.4]nonan-2-yl)-N-(pyrimidin-2-ylmethyl)pyrimidine-5-formamide]

- IC50 (PDE-5A enzyme): 4.63 nM
- AUC(0-inf) [2, 4]: 24 ng·h/mL
- Cmax [2, 4]: 6.5 ng/mL
- Tmax [2, 4]: 0.5 h
- half-life [2, 4]: 2.26 h
- bioavailability [2, 4]: 3.5%
- AUC(0-inf) ([2]; intravenous injection, 1 mg/kg): 212 ng·h/mL
- half-life ([2]; intravenous injection, 1 mg/kg): 1.68 h
- Cl_obs ([2]; intravenous injection, 1 mg/kg): 80.2 mL/min/kg
- Vss_obs ([2]; intravenous injection, 1 mg/kg): 12.05 L/kg
Compound: COc1ccc(CNc2nc(N3CC4CC4C3CO)ncc2C(=O)NCc2ccccc2)cc1Cl (stereo not drawn) [Compound 32, N-benzyl-4-((3-chloro-4-methoxybenzyl)amino)-2-(2-(hydroxymethyl)-3-azabicyclo[3.1.0]hexan-3-yl)pyrimidine-5-formamide]

- IC50 (PDE-11): > 10000 nM
Compound: COc1ccc(CNc2nc(N3CCC4(CC4)C3)ncc2C(=O)NCCN2CCNCC2)cc1Cl [Compound 42, 4-((3-chloro-4-methoxybenzyl)amino)-N-(2-(piperazin-1-yl)ethyl)-2-(5-azaspiro[2.4]heptan-5-yl)pyrimidine-5-formamide]

- IC50 (PDE-11): > 10000 nM
Compound: COc1ccc(CNc2nc(N3CCC4(CC4)C3)ncc2C(=O)N[C@H]2CC[C@H](N)CC2)cc1Cl [Compound 44, N-(trans-4-aminocyclohexyl)-4-(3-chloro-4-methoxybenzylamino)-2-(5-azaspiro[2.4]heptan-5-yl)pyrimidine-5-formamide]

- IC50 (PDE-11): > 10000 nM
Compound: COc1ccc(CNc2nc(N3CCC4(CC4)C3)ncc2C(=O)NCC2CCC(O)CC2)cc1Cl (stereo not drawn) [Compound 47, 4-((3-chloro-4-methoxybenzyl)amino)-N-(4-hydroxycyclohexyl)methyl-2-(5-azaspiro[2.4]heptan-5-yl)pyrimidine-5-formamide]
